Columns and labels:
[1] = system: plasma low-density lipoprotein (LDL); assay: Antioxidant activity of plasma LDL (lag time of copper-induced conjugated diene formation) in hamsters on high-fat diet; type: in vivo; conditions: 1% (w/v) solution in olive oil plus pravastatin 10 mg/kg orally for 4 consecutive days, LDL 40 μg protein/mL, copper ion 1 μM, 234 nm, n = 3
Experimental: Hamsters were fed on a high-fat diet containing 1.5% of cholesterol for 1 week and, then, dosed orally with a 1% (w/v) solution of either the oxidized or the reduced coenzyme Q10 in olive oil and 10 mg of pravastatin per kg body weight for 4 consecutive days. After overnight fasting, the plasma was collected, the plasma LDL was separated by density-gradient centrifugation method, and as a marker of LDL antioxidant activity, the lag time was measured. The lag time is defined herein as the value found by adding a copper ion (1 μM) to LDL (40 μg protein/mL) and monitoring at 234 nm the time course of conjugated diene structure of oxidized fat/fatty acid resulting from oxidation to determine the time interval until a sharp increase had begun in the conjugated diene concentration.

[2] = Plasma level of the reduced coenzyme Q10 in hamsters on high-fat diet (HPLC); type: in vivo
Experimental: Hamsters were fed on a high-fat diet containing 1.5% of cholesterol for one week and, then, a 1% (w/v) solution of either the oxidized or the reduced coenzyme Q10 in olive oil was administered orally for 4 consecutive days. After overnight fasting, the plasma was collected and the reduced coenzyme Q10 in the plasma was assayed by HPLC.

Structure (SMILES)	Lag time (LDL antioxidant activity) [1]	Gain in reduced coenzyme Q10 in plasma ([2]; hamster, in vivo, po, 4 days)	Gain in reduced coenzyme Q10 in plasma, relative to oxidized coenzyme Q10 group (100%) ([2]; hamster, in vivo, po, 4 days)	Gain in reduced coenzyme Q10 in plasma ([2]; hamsters on high-fat diet (1.5% cholesterol, 1 week), 1% (w/v) solution in olive oil orally for 4 consecutive days, plasma after overnight fasting, n = 3)	Gain in reduced coenzyme Q10 in plasma, relative to oxidized coenzyme Q10 group (100%) ([2]; hamsters on high-fat diet, 1% (w/v) solution in olive oil orally for 4 consecutive days, n = 3)
COC1=C(OC)C(=O)C(C/C=C(\C)CC/C=C(\C)CC/C=C(\C)CC/C=C(\C)CC/C=C(\C)CC/C=C(\C)CC/C=C(\C)CC/C=C(\C)CC/C=C(\C)CCC=C(C)C)=C(C)C1=O [oxidized coenzyme Q10]	25 ± 8 min	10.1 ng/mL	100%	–	–
COc1c(O)c(C)c(C/C=C(\C)CC/C=C(\C)CC/C=C(\C)CC/C=C(\C)CC/C=C(\C)CC/C=C(\C)CC/C=C(\C)CC/C=C(\C)CC/C=C(\C)CCC=C(C)C)c(O)c1OC [reduced coenzyme Q10]	44 ± 9 min	–	–	14.4 ng/mL	143%

Reference: US20040248992A1, “Method and composition for inhibiting arteriosclerosis” (KANEKA CORPORATION, priority 2000, published 2004)
